Laboratory results published in ChEMBL document CHEMBL1201862, “PubChem BioAssay data set” (2004).
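Compound exposure: 48 hours, 5 concentrations, 96-well plates. At the GI50, growth is halved.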 Active and inactive are the calls of the source. No stated cut-off is given here; in the data, active = GI50 up to about 1.1 µM and inactive = higher.

Test system: BT-549
Test: DTP human tumour cell line panel, 48 h

SMILES | GI50
CSc1c(CC(=O)O)n(Cc2ccccc2)c2ccccc12 | > 100 µM (inactive)
N#Cc1c(N)n(C2OC(CO)C(O)C2O)c2ncnc(N)c12 (configuration not stated) | 0.152 µM (active)
O=C(C/N=C(\CN(c1ccccc1)c1ccccc1)Oc1c(Cl)cc(Cl)cc1Cl)N1c2ccccc2Sc2ccccc21 | 17.3 µM (inactive)
C=C1C(=O)O[C@H]2C1C[C@@H](OC(C)=O)/C(C)=C/CC[C@@]1(C)O[C@H]21 (some centres not stated) | 5.92 µM (inactive)
Cc1cc(C)nc(NS(=O)(=O)c2ccc(Nc3nncc(=O)n3N)cc2)n1 | 18.4 µM (inactive)
CC1OC2OC3C(OCC(O)C3O)OC(=O)[C@]34CCC(C)(C)CC3C3=CCC5[C@@]6(C)C[C@H](O)[C@H](OC7OC(CO)C(O)C(O)C7OC7OC(COC(=O)CC(C)(O)CC(=O)OC1C(O)C2O)C(O)C(O)C7O)[C@@](C)(CO)C6CC[C@@]5(C)[C@]3(C)CC4 (some centres not stated) | 1.5 µM (inactive)
O=C(COc1ccc(OCC(=O)N2C(=O)CS/C2=N\c2ccccc2)cc1)N1C(=O)CS/C1=N\c1ccccc1 | 18 µM (inactive)
COc1ccc(C[C@@H]2CN(C(=O)c3ccccc3)[C@H](Cc3ccc(O)cc3)CN2C(=O)c2ccccc2)cc1Br | > 100 µM (inactive)
COC(=O)CNC(=O)/C=C/[C@H](O[Si](C)(C)C(C)(C)C)[C@H](/C=C/C(=O)NCC(=O)OC)O[Si](C)(C)C(C)(C)C | > 25 µM (inactive)
COc1cc(C(c2cccc3ccccc23)N2C(=O)CCC2C(=O)O)cc(OC)c1OC (configuration not stated) | > 100 µM (inactive)
O=C1/C(=C/c2ccc(O)cc2)CCC1CNc1ccccc1 (configuration not stated) | 14.5 µM (inactive)
NC(=O)C1CCCNC1 (configuration not stated) | > 100 µM (inactive)
Cc1nc(-c2ccccc2)c(C)n2c1nc1ccccc12 | 23 µM (inactive)
CC(O)c1cc2c(s1)C(=O)c1sccc1C2=O (configuration not stated) | 0.0646 µM (active)
O=C(/C=C/c1ccccc1)OCC1=C[C@@H](O)[C@@H]2C=CO[C@@H](OC3OC(CO)C(O)C(O)C3O)[C@H]12 (some centres not stated) | > 100 µM (inactive)
COc1ccc(C/C=C(\C)CCO)cc1 | > 100 µM (inactive)

SMILES | GI50
CC1CC(=O)N(N(C)C)C(C#N)(C#N)C1(C#N)C#N (configuration not stated) | 15.7 µM (inactive)
COC(=O)C1=C(O)C(C(=O)OC)[C@]2(O)[C@H](C(=O)OC)[C@H]1C[C@@H](c1ccc(O)cc1)[C@H]2C(=O)OC (some centres not stated) | 26.2 µM (inactive)
CCSc1nc(-c2cccs2)nc2ccc(I)cc12 | > 100 µM (inactive)
Cc1cc(C)nc(NC(=O)COc2ccc(Cl)cc2)c1 | > 100 µM (inactive)
O=C1CSC2(CC(/C=C/c3ccccc3O)=NN2c2cccc(S(=O)(=O)O)c2)N1c1nc2ccccc2s1 (configuration not stated) | 24.9 µM (inactive)
C#CC[C@@H]1C(=O)N(Cc2ccc(OC)cc2)[C@@H](C(C)C)C(=O)N1Cc1ccc(OC)cc1 | 29.4 µM (inactive)
CC(C)(C)[Si](C)(C)OCC1OC(n2ccc(=O)[nH]c2=O)C(O[Si](C)(C)C(C)(C)C)[C@@]12O[C@H]2C(N)=O (some centres not stated) | 18.5 µM (inactive)
CCCCN1C(=O)CC2[C@@H]3CCc4cc(OC(C)=O)ccc4C3CC[C@]2(C)C1=O (some centres not stated) | > 10 µM (inactive)
COc1ccc2c(c1O)-c1c(OC)c(OC)cc3c1[C@H](C2)[N+](C)(C)CC3 | > 100 µM (inactive)
COC(=O)C1C(O)C(C)C(=O)C(C)/C=C\C=C(C)C(=O)Nc2c(C)c(OC(C)=O)c3c(c2O)C(=O)C(C)=C2OCOC(=C23)C(C)=CC(C)(O)C(O)C(C)C1O (configuration not stated) | 42 µM (inactive)
C=C(C(=O)OC1C(CO)OC(OCC2CC[C@@H]3C[C@]4(OC(=O)C3=C)C(C)=CC(=O)C24)C(O)C1O)[C@@H]1CCC(CO)C2C(=O)C=C(C)[C@@]2(O)C1 (some centres not stated) | 1.39 µM (inactive)
COc1ccc(OC)c(/N=C/c2cc(OC)c(OC)c(OC)c2)c1 | > 78.9 µM (inactive)
COc1cc2c3c(c1OC)C(=O)C(=O)C1=C3N(CCC1)CC2 | 21.8 µM (inactive)
COC(=O)CCC(C)[C@H]1CCC2C3C(C[C@H](OC(C)=O)[C@@]21C)[C@@]1(C)CCC2(C[C@H]1C[C@H]3OC(C)=O)OOC1(CCCCC1)OO2 (some centres not stated) | 40.6 µM (inactive)
C[n+]1c2ccccc2c(N=[N+]=[N-])c2ccccc21 | > 10 µM (inactive)
CN(C)CCCN1C(=S)N(CCCN(C)C)c2c3ccccc3nc3c([N+](=O)[O-])ccc1c23 | 14.7 µM (inactive)
